Test results reported in ChEMBL document CHEMBL1806393, “Cytotoxic oxasqualenoids from the red alga Laurencia viridis” (Eur J Med Chem, 2011).
The source made the active and inactive calls. No cut-off for these calls is given here.

What was measured:
[1] = Inhibition of […] using p-nitrophenyl phosphate as substrate at <100 uM by UV/visible absorption spectroscopic analysis
[2] = Cytotoxicity against human MM144 cells assessed as inhibition of cell proliferation after 72 hrs by XTT assay; format: functional, cell-based
[3] = Solubility of the compound in water; format: physicochemical; settings: buffer
Jurkat [4] = experiment: Cytotoxicity against human Jurkat cells assessed as inhibition of cell proliferation after 72 hrs by XTT assay; format: functional, cell-based
HeLa = experiment: Cytotoxicity against human HeLa cells assessed as inhibition of cell proliferation after 72 hrs by XTT assay; format: functional, cell-based
[5] = Cytotoxicity against human CADO-ES1 cells assessed as inhibition of cell proliferation after 72 hrs by XTT assay; format: functional, cell-based; settings: CADO-ES1, 72 h
Jurkat [6] = experiment: Cell cycle arrest in human Jurkat cells assessed as increase in apoptotic cells at sub-G1 phase at 20 uM after 72 hrs using propidium iodide staining by flow cytometry; format: functional, cell-based
Jurkat [7] = experiment: Induction of apoptosis in human Jurkat cells assessed as DNA breakdown in sub-G1 phase at 20 uM after 24 to 72 hrs using propidium iodide staining by flow cytometry; format: functional, cell-based

SMILES	inhibition [1]	solubility [3]	IC50 [2] [µM]	IC50 (Jurkat [4]) [µM]	IC50 (HeLa) [µM]	IC50 [5] [µM]	Activity (Jurkat [6])	Activity (Jurkat [7])
CC(C)(O)[C@H]1CC[C@](C)([C@@H](O)CCC(O)(CO)[C@H]2CC[C@H]3O[C@@H]([C@]4(C)CC[C@@H](Br)C(C)(C)O4)CC[C@]3(C)O2)O1 (stereo partly drawn)	inactive	Insoluble	21	4.6	24	18		
C=C(CC[C@H](OS(=O)(=O)O)[C@@]1(C)CC[C@H](C(C)(C)O)O1)[C@H]1CC[C@H]2O[C@@H]([C@]3(C)CC[C@@H](Br)C(C)(C)O3)CC[C@]2(C)O1	inactive	Insoluble	18	12	33	27	Active	Active
CC(C)(O)[C@H]1CC[C@](C)([C@@H](O)CC[C@@](O)(CO)C(=O)[C@H](O)C[C@H]2O[C@@H]([C@]3(C)CC[C@@H](Br)C(C)(C)O3)CC[C@]2(C)O)O1	inactive	Insoluble	15.5	7.2	26	3.1		
CC(C)(O)[C@H]1CC[C@](C)([C@@H](O)CC[C@@](O)(CO)C(=O)CC[C@H]2O[C@@H]([C@]3(C)CC[C@@H](Br)C(C)(C)O3)CC[C@]2(C)O)O1 [PRETHYRSENOL A]	inactive	Insoluble	10.2	8.15	29	14.5		
C=C(CC[C@H](O)[C@@]1(C)CC[C@H](C(C)(C)O)O1)[C@H]1CC[C@H]2O[C@@H]([C@]3(C)CC[C@@H](Br)C(C)(C)O3)CC[C@]2(C)O1 [DEHYDROTHYRSIFEROL]	inactive	Insoluble	21.5	13.5	34.5	12	Active	Active

Second part, led by results:

inhibition [1]	solubility [3]	SMILES	IC50 [2] [µM]	IC50 (Jurkat [4]) [µM]	IC50 (HeLa) [µM]	IC50 [5] [µM]	Activity (Jurkat [6])	Activity (Jurkat [7])
inactive	Insoluble	CC(C)(O)[C@H]1CC[C@](C)([C@@H](O)CC[C@@H](CO)C2=CC[C@H]3O[C@@H]([C@]4(C)CC[C@@H](Br)C(C)(C)O4)CC[C@]3(C)O2)O1	7.3	7.55	23	16.5		
inactive	Insoluble	CC(C)(O)[C@H]1CC[C@](C)([C@H](CCC(O)(COS(=O)(=O)O)[C@H]2CC[C@H]3O[C@@H]([C@]4(C)CC[C@@H](Br)C(C)(C)O4)CC[C@]3(C)O2)OS(=O)(=O)O)O1 (stereo partly drawn)	31.5	8.6	35.5	17		
inactive		CC(C)(O)[C@H]1CC[C@](C)([C@@H](O)CC[C@@](O)(CO)C2=CC[C@H]3O[C@@H]([C@]4(C)CC[C@@H](Br)C(C)(C)O4)CC[C@]3(C)O2)O1						
inactive	Insoluble	CC(C)(O)[C@H]1CC[C@](C)([C@H](CCC(O)(CO)[C@H]2CC[C@H]3O[C@@H]([C@]4(C)CC[C@@H](Br)C(C)(C)O4)CC[C@]3(C)O2)OS(=O)(=O)O)O1 (stereo partly drawn)	13.5	6.9	27.5	11		
